Laboratory results taken from patent US7348025B2, “Small particle liposome aerosols for delivery of anticancer drugs” (priority 1999, dated 2008).
Where two headings read alike, the source gives them in different places.

Assays:
[1] = Tissue distribution of CPT after inhalation of CPT liposome aerosol; type: in vivo, Mouse; details: Mouse, inhaled in liposome aerosol (30 min), 16.2 μg/kg (486 ng/mouse)
Protocol: The final suspension was clear. If precipitation occurred, it was reheated to 50-60° C. The preparation was frozen in liquid nitrogen and lyophilized overnight. For use the material was dissolved in sterile water to the appropriate drug concentration, not exceeding 1.0 mg/ml for either drug. The efficiency of incorporation of drug in the liposomes was examined qualitatively by microscopic examination under polarized light. Unincorporated drug was seen as bi-refringent crystals. The efficiency of incorporation was examined by centrifugation of aqueous suspensions of liposomes on Percoll™ gradients. One-tenth ml of suspension was layered over 2 ml of gradient and centrifuged at 2000 rpm for 25-30 minutes. Liposomes layer at the water-Percoll interface, while unincorporated drug was deposited at the bottom of the tube. Many other lipids may be substituted for DLPC in the formulation and use of liposomes for delivery of drugs by aerosol (26).
The mobile phase was 30% acetonitrile and 70% of 0.1% glacial acetic acid. CPT was detected using the Waters 470 scanning fluorescence detector set to an excitation wavelength of 370 nm and an emission wavelength of 440 nm. […] The data were analyzed with the Waters Millenium software.
The deposited dose was calculated to be 486 ng per mouse. The mean concentrations in lungs and liver were similar with smaller concentrations in the other sites examined. […] Drug was cleared promptly from the lungs so that 15 minutes after stopping nebulization only negligible amounts of drug were present in the lungs. Liver, kidney and spleen had substantial amounts of drug initially which gradually diminished through the one hour of study. […] These studies indicate substantial immediate deposition of drug in the lungs with rapid clearance to the viscera. The amount of drug contributed by absorption from swallowed drug is uncertain.

[2] = test system: human colon carcinoma xenografts (Squires); experiment: Growth of human colon carcinoma xenografts in nude mice under liposome aerosol; type: in vivo
[3] = Phase I clinical trial: 9NC plasma pharmacokinetics; type: in vivo, human
Protocol: The purpose of quantitation of 9NC from plasma and bronchoalveolar fluids was to determine systemic absorption from the alveolar-capillary exchange surface. Plasma concentrations of total 9NC and the lactone form were measured. For patients who volunteered for pharmacokinetic studies, blood was obtained at various time pints from the start of the aerosol treatment depending on the cohort. For cohort 1 used in the feasibility study blood was obtained at the end of the first week of treatment. Samples were taken at 0, 0.5, 1, 1.25, 1.5, 2, 3, 5, 7, and 24 hours from the start of the 1-hr aerosol exposure. For all other cohorts, samples were obtained at 0, 2, 5, 8, and 24 hours on days 1 and 5 of weeks 1, 4 and 8 where appropriate. Quantitation was performed either by LC/MS, for cohorts 1 and 2, or by HPLC analysis, for cohorts 3 to 6. 9NC plasma concentrations were calculated from the ratio of 9 NC to CPT as internal standard. Extraction of 9NC and its lactone form was performed using Waters C18 Sep-Pak Light cartridges immediately after separating the plasma by a method similar to that previously described (12). Minimal level of detection of 9NC/ml of plasma was 0.5 ng by LC/MS and 1.0 ng by HPLC.

[4] = Phase I clinical trial: 9NC in bronchoalveolar lavage fluid or bronchial aspirate; type: in vivo, human
Protocol: Bronchoscopy was performed by a pulmonologist to obtain either bronchoalveolar lavage (BAL) fluid or bronchial aspirate for quantitation of 9NC. A BAL of the right middle lobe was performed once on volunteering patients at various times after the completion of treatment to study the amount of 9NC retained over time. Concentration of total 9NC in the BAL fluid was corrected for dilution by determining the ration of BUN in the lavage and in a plasma sample taken at the same time (13).

[5] = cited from earlier work; for T1/2: Human; for Blood or plasma concentration / Time of maximum concentration: in vivo, po
[6] = cited from earlier work
[7] = cited from earlier work; remark: listed apart in the source
[8] = human, in vivo, po; cited from earlier work
[9] = cohort 1 (0.26 mg/m^2), plasma, DLPC-9NC aerosol

For CC[C@@]1(O)C(=O)OCc2c1cc1n(c2=O)Cc2cc3c([N+](=O)[O-])cccc3nc2-1 [9-NC, 9-nitro-camptothecin], the “Blood or plasma concentration” value [1] was 13.9 ng/mL, the “Increase in tumor size, escalated-dose group versus 77 μg/kg group” value ([2]; 77 then 153 then 307 μg/kg per day versus 77 μg/kg throughout, differences not statistically significant) was “slightly less increase in tumor size” and the “Rate of tumor growth versus controls” value ([2]; day 28, P<0.007, Student t test, 2 tailed) was “reduced rate of tumor growth”. For the same compound, the “Emaciation of treated mice” value ([2]; high dose group (up to 307 μg/kg per day)) was “suggesting drug toxicity”, the “Range of peak plasma concentration of total 9NC” value ([3]; cohort 1 (0.26 mg/m^2), 5 patients, 1-hour DLPC-9NC aerosol, at 2 hr) was 13.6 to 58.0 ng/mL and the “Mean (±SD) peak plasma concentration of total 9NC” value ([3]; cohort 1 (0.26 mg/m^2), 5 patients, 1-hour DLPC-9NC aerosol, at 2 hr from start, end of first week) was 37.7 ± 20.2 ng/mL. For the same compound, the “T1/2α, mean (±SD)” value [3, 9] was 1.9 ± 1.4 h, the “T1/2β, mean (±SD)” value [3, 9] was 16.4 ± 10.5 h and the “Peak plasma levels in women compared with men” value ([3]; human, in vivo) was “higher”. The “Time for which total 9NC plasma concentrations continued to increase” value ([3]; human, in vivo) was 2 to 3 h, the “9NC in plasma taken at the same time as BAL” value (“9NC in plasma taken … as BAL” below) ([4]; Subject 1, cycle 1, day 3, 2.1 hr from start of aerosol) was 43.2 ng/mL and the “9NC in BAL fluid” value ([4]; Subject 1, cycle 1, day 3, 2.1 hr from start of aerosol, cohort 1, 0.26 mg/m^2) was 8.2 ng/mL. For the same compound, the “9NC in plasma taken … as BAL” value ([4]; Subject 3, cycle 4, day 3, 4.8 hr from start of aerosol) was 10.8 ng/mL, the “9NC in BAL fluid” value ([4]; Subject 3, cycle 4, day 3, 4.8 hr from start of aerosol, cohort 1, 0.26 mg/m^2) was 4.3 ng/mL and the “9NC in plasma taken … as BAL” value ([4]; Subject 4, cycle 2, day 4, 3.5 hr from start of aerosol) was 34.2 ng/mL. The “9NC in BAL fluid” value ([4]; Subject 4, cycle 2, day 4, 3.5 hr from start of aerosol, cohort 1, 0.26 mg/m^2) was 25.8 ng/mL, the “9NC in plasma taken at the same time as the aspirate” value ([4]; Subject 6, cycle 1, day 4, 1.2 hr from start of aerosol) was 36.2 ng/mL and the “9NC in lung aspirate” value ([4]; Subject 6, cycle 1, day 4, 1.2 hr from start of aerosol, cohort 1, 0.26 mg/m^2) was 60.7 ng/mL. The T1/2 ([5]; single oral dose 0.1 mg/kg (7 mg/dose)) was “(T1/2 = 2.5 h)”, the T1/2 ([5]; single oral dose 1.0 mg/kg (70 mg/dose)) was “(T1/2 = 4.9 h)” and the “Blood or plasma concentration” value ([5]; 0.1 mg/kg) was 483 ng/mL. The “Time of maximum concentration” value ([5]; 0.1 mg/kg) was 3.4 h, the “Blood or plasma concentration” value ([5]; 1 mg/kg) was 1247 ng/mL and the “Time of maximum concentration” value ([5]; 1 mg/kg) was 5.3 h. The T1/2 ([6]; Dog, single oral dose 1.0 mg/kg (10 mg/dose)) was “(T1/2 = 6.4 h)”, the “Blood or plasma concentration” value ([6]; dog, in vivo, po, 1 mg/kg) was 19.1 ng/mL and the “Time of maximum concentration” value ([6]; dog, in vivo, po, 1 mg/kg) was 0.7 h. The T1/2 ([7]; Mouse, single oral dose 4.1 mg/kg (0.124 mg/dose)) was “(T1/2 = 10 h)”, the “Blood or plasma concentration” value ([7]; mouse, in vivo, po, 4.1 mg/kg) was 732 ng/mL and the “Time of maximum concentration” value ([7]; mouse, in vivo, po, 4.1 mg/kg) was 6 min. The Another side effect [8] was “chemical cystitis with hematuria” and the Main toxicity profile [8] was “hematologic with anemia and neutropenia and gastrointestinal with nausea, vomiting and anorexia”.
